Experimental findings from PubChem BioAssay AID179 (DTP/NCI, 2004) are described below.

The experiment deals with CEM cells HIV-1 protection, formazan growth assay. In words: NCI AIDS Antiviral Assay. The following applies: for IC50: measured here: growth of uninfected CEM cells. An outline of the steps: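 Category rules: moderately active means at least 50% protection on retest, and confirmed active means 100% protection reproducibly. The underlying data came from a formazan growth assay in HIV-1-infected CEM cells.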

The source made the active and inactive calls.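 Rule for the calls: active = compounds giving half or more protection of infected cells from virus-caused growth loss, again on retest; inactive = the rest.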 Where a SMILES comes first, the peptide text is derived from it. The star is where a group is joined. Cbz = O=C(OCc1ccccc1)*; Boc = CC(C)(C)OC(=O)*; OSu = O=C1CCC(=O)N1O*; CH2Cl = ClC*

One may read the EC50 as the concentration needed to bring the measured effect to its halfway point. By IC50 is commonly meant the concentration that gives 50% inhibition. Low readings indicate inhibition by little substance, high ones a need for much substance. For the molecule `COc1ccc2c(c1)nc1n2C(c2c(F)cccc2Cl)SC1` (stereo not given), the EC50 was over 200 µM and the IC50 was 4.17 µM.

Consider `CC1OC(O[C@H]2C3C=CO[C@@H](OC4OC(CO)C(O)C(O)C4O)C3[C@@]3(COC(=O)/C=C/c4ccc(O)cc4)O[C@@H]23)C(O)C(O)C1O` (stereo not given in full), for which the EC50 was over 200 µM and the IC50 is over 200 µM.

As to `COc1cccc(/C=C2\S/C(=N/Nc3nc(-c4ccc([N+](=O)[O-])cc4)cs3)NC2=O)c1O`, the EC50 was over 200 µM and the concentration for half-maximal inhibition (IC50) stood at 29.5 µM.

Consider `CN(C)c1ccc(-c2cc(C(=O)O)c3c(ccc4ccccc43)n2)cc1`, for which the EC50 was over 20.9 µM and the half-inhibitory concentration (IC50) was over 20.9 µM.

On to `COC(=O)c1ccccc1SSCCN`, for which the EC50 is over 200 µM and the half-inhibitory concentration (IC50) amounted to 19.1 µM.

`COc1ccc(OC)c2cc(Cc3ccc(N(C)C)cc3)c(=O)c(Cc3ccc(N(C)C)cc3)cc12`: the EC50 is over 200 µM and the IC50 stood at 43.7 µM.

Regarding `C=COCCCOc1ccccc1`, the EC50 was over 200 µM and the concentration for half-maximal inhibition (IC50) is over 200 µM.

As to `OCCOCn1nc(-c2ccccc2)nc1-c1cnccn1`, the EC50 was over 200 µM and the IC50 was over 200 µM.

Consider `CC(NC(=O)C(NC(=O)OC(C)(C)C)C(C)C)C(=O)NCC(=O)ON1C(=O)CCC1=O` (stereo not drawn) (Boc-Val-Ala-Gly-OSu; configuration not given here), for which the EC50 was over 200 µM and the half-inhibitory concentration (IC50) came to 117 µM.

Take `COc1ccc2nc3cc(Cl)ccc3c(Sc3ccccc3[N+](=O)[O-])c2c1`: the EC50 is over 9.55 µM and the IC50 was over 9.55 µM.

For `CN1C(=O)NC2ON=C(c3ccccc3)C2C1=O` (stereo not given), the EC50 is over 200 µM and the half-maximal inhibitory concentration (IC50) came to 53.7 µM.

Take `COc1cc2cc(C(=O)N3CC(CCl)c4ccc([N+](C)(C)Cc5ccccc5[N+](=O)[O-])cc43)[nH]c2c(OC)c1OC` (stereo not given): the EC50 was over 20 µM and the concentration for half-maximal inhibition (IC50) is 2.24 µM.

As for `N/N=C(/C(=O)Nc1cccc(Cl)c1)C(C(=O)c1ccc(O)cc1O)C1OC(=O)c2ccccc21` (stereo not given), the EC50 was over 525 µM and the IC50 is 87.1 µM.

Consider `NC1(C(=O)O)C2CC3CC(C2)CC1C3` (stereo not given), for which the result was inactive.

In the case of `CCCCCCCCCCCCCCCCCC1=Nc2cc(C)c(C)cc2NC(=O)C1`, the EC50 is over 100 µM and the IC50 was over 100 µM.

For `CC(=O)O[C@H]1CC[C@]2(C)C3CC[C@]4(C)C([C@H](C)CCCC(C)C)CCC4[C@]3(C#N)n3c(=O)n(-c4ccccc4)c(=O)n3[C@]2(C#N)C1` (stereo not given in full), the EC50 is over 200 µM and the IC50 was over 200 µM.

For the molecule `COc1cc2c(cc1OC)C(=O)N1CCCC1CS2` (stereo not given), the EC50 was over 200 µM and the IC50 is over 200 µM.

For the molecule `COc1cc2cc3c4cc(OC)c(OC)cc4cc[n+]3c(C)c2cc1OC` (tested in a mixture with another compound), the EC50 is over 93.3 µM and the IC50 was 4.17 µM.

For the molecule `Cc1cccc(N=NC2Sc3nc4ccccc4n3C2=O)c1` (stereo not given), the EC50 is over 200 µM and the 50% inhibitory concentration (IC50) is over 200 µM.

On to `Nc1nc(Cl)cc(Oc2ccc(Cl)cc2)n1`, for which the EC50 is over 200 µM and the IC50 is over 200 µM.

As to `CC(=O)N1C(=O)CC23c4cccc([N+](=O)[O-])c4C(=O)N2CCCN13` (stereo not given), the EC50 was over 398 µM and the IC50 was over 398 µM.

Regarding `CN(C)c1ccc(/C=C2/Oc3ccc(Cl)cc3C2=O)cc1`, the EC50 is over 4.79 µM and the IC50 is over 4.79 µM.

Take `Cc1nn(-c2ccccc2)c2[nH]c(=S)cnc12`: the EC50 is over 200 µM and the 50% inhibitory concentration (IC50) turned out to be 87.1 µM.

With `Cc1ccc(S(=O)(=O)SCc2ccccc2CSS(=O)(=O)c2ccc(C)cc2)cc1`, the outcome was inactive.

Take `COc1cc2oc(=O)cc(C)c2c(OC)c1O`: the result was inactive.

`CCCCN(CC)C(=O)C1=C(C)NC(C)=C(C(=O)N(CC)CCCC)C1`: the EC50 was over 200 µM and the IC50 was 135 µM.

With `C=C1N2[C@@H](CO)[C@H](c3ccccc3)O[C@]2(C)CC[C@]1(C)Cc1ccccc1`, the EC50 is over 200 µM and the concentration for half-maximal inhibition (IC50) came out at 83.2 µM.

Consider `CN(CC#N)[C@H]1CCC[C@]1(O)/C=C/[Si](C)(C)C`, for which the EC50 was over 28.8 µM and the IC50 is over 28.8 µM.

On to `CC(=O)CCCCn1c(=O)c2c(ncn2C)n(C)c1=O`, for which the EC50 is over 891 µM and the 50% inhibitory concentration (IC50) was over 891 µM.

With `CCSC1=[N+](SCC)CCCS1`, the EC50 was over 708 µM and the 50% inhibitory concentration (IC50) stood at 269 µM.

With `COc1cnn(-c2ccccc2)c(=O)c1SCc1ccc(Cl)c(Cl)c1`, the EC50 was over 34.7 µM and the concentration for half-maximal inhibition (IC50) is 27.5 µM.

As to `O=c1[nH]ncc(N/N=C(/C=C/c2ccc(C/C(=N/Nc3cn[nH]c(=O)c3Cl)c3ccccc3)cc2)c2ccccc2)c1Cl`, the result was inactive.

With `COC(=O)NC(S(=O)(=O)O)S(=O)(=O)O`, the outcome was inactive.

Consider `Nc1nc(Cl)cc(NCC2(CO)CC(CCc3ccccc3)C2)n1` (stereo not given), for which the EC50 is over 20 µM and the half-maximal inhibitory concentration (IC50) was 14.8 µM.

Turning to `COc1c2c(nc3ccccc13)-c1cc(C(CC(=O)OC(C)(C)C)C(=O)OC(C)C)c(CO)c(=O)n1C2` (stereo not given), the EC50 was over 28.8 µM and the IC50 is 0.479 µM.

Regarding `Cc1ccc(S(=O)(=O)N2CCCCC2)cc1`, the EC50 was over 200 µM and the IC50 was 72.4 µM.

Consider `Cc1ccc2c(c1)[nH]c(=S)n2C=C(C#N)C#N`, for which the EC50 is over 200 µM and the IC50 is over 200 µM.

As for `CC1CN=C(N(C)C(=O)Nc2ccc(Cl)c(Cl)c2)S1` (stereo not given), the EC50 was over 200 µM and the IC50 is 37.2 µM.

Consider `CCCC1(CCC)c2cc(/C=N\O)ccc2-c2ccc(-c3ccc(C(C)(C)C)cc3)cc21`, for which the EC50 is over 200 µM and the IC50 came out at 37.2 µM.

Turning to `CCOC(=O)CCCN(c1sc(C)c(-c2ccccc2)c1C(=O)OCC)S(=O)(=O)c1ccc(C)cc1`, the EC50 is over 200 µM and the IC50 came to 3.98 µM.

In the case of `N=C(N)c1ccc(NC(=O)c2ccc(C(=O)Nc3ccc(C(=N)N)cc3)c(N)c2)cc1`, the EC50 was 53.7 µM and the IC50 is over 200 µM.

Regarding `CCOP(=O)(OCC)/C(C#N)=C/c1ccc2c(c1)OCO2`, the EC50 was over 427 µM and the IC50 is over 427 µM.

`O=S(Cc1ccccc1)/C(=C/n1c(=S)[nH]c2ccccc21)c1ccccc1` (stereo not given): the EC50 was over 200 µM and the half-inhibitory concentration (IC50) was over 200 µM.

On to `COc1cc(O)c2c(c1)cc(O)c1c(=O)cc(C)oc12`, for which the EC50 was over 195 µM and the IC50 worked out at 10.5 µM.

As to `N#Cc1nc(-c2ccccc2C(=O)O)oc1N`, the result was inactive.

Consider `c1csc(-c2cc(-c3ccsc3)cs2)c1`, for which the EC50 is over 200 µM and the IC50 is over 200 µM.

Take `COc1cc(C2C(C(=O)Nc3ccc(Cl)c(Cl)c3)=C(C)NC(C)=C2C(=O)Nc2ccc(Cl)c(Cl)c2)ccc1O`: the EC50 is over 22.4 µM and the IC50 is 12.6 µM.

`COC(=O)C1=COC2OC3/C(=C\c4ccc(O)c(OC)c4)C(=O)OC34C=CC1C24` (stereo not given): the EC50 was over 200 µM and the 50% inhibitory concentration (IC50) was determined as 24 µM.

Turning to `C/C(=N\NC(=S)N(C)C)c1ccccn1`, the EC50 is over 2.24 µM and the concentration for half-maximal inhibition (IC50) is 0.0138 µM.

As to `Cc1nc2ccccc2c(=O)n1NC(=O)c1ccc([N+](=O)[O-])cc1`, the EC50 was over 200 µM and the concentration for half-maximal inhibition (IC50) is over 200 µM.

Take `CC(C)CCC[C@@H](C)C1CCC2[C@@H]3CCC4C[C@@H](CCCC=C(c5cc(Cl)c(O)c(C(=O)O)c5)c5cc(Cl)c(O)c(C(=O)O)c5)CC[C@]4(C)C3CC[C@@]21C` (stereo not given in full): the concentration for a half-maximal effect (EC50) is 63.1 µM and the IC50 was 166 µM.

Consider `Cc1ncc([N+](=O)[O-])n1CC(O)Cn1ccnc1[N+](=O)[O-]` (stereo not given), for which the EC50 is over 200 µM and the IC50 is over 200 µM.

For the molecule `O=C1C(=C2CCCC2)CC/C1=C1/SS/C(=C2/CCC(=C3CCCC3)C2=O)S1`, the EC50 was over 200 µM and the half-maximal inhibitory concentration (IC50) came to 120 µM.

In the case of `CCN1c2ccccc2-n2c(C)nnc2-c2c1n[nH]c2-c1ccccc1`, the EC50 is over 200 µM and the IC50 was 28.2 µM.

In the case of `Nc1nc2n(nc[n+]2CCP(=O)(O)O)c(=O)[nH]1`, the result was inactive.

For the molecule `O=c1oc2ccccc2c(O)c1Sc1c(O)c2ccccc2oc1=O`, the result was inactive.

Turning to `CCOP(=O)(OCC)/C(C#N)=C/c1ccoc1`, the EC50 was over 977 µM and the IC50 was over 977 µM.

On to `COC(=O)/C=C\C(C#N)(C#N)N=Cc1ccc(Br)s1`, for which the EC50 is over 2 µM and the IC50 came to 1.1 µM.

For the molecule `COc1cc(C(=O)C/C(CCCC(=O)Nc2ccccc2[N+](=O)[O-])=N/NC(=O)c2cc3ccccc3cc2O)ccc1O`, the EC50 is over 32.4 µM and the IC50 stood at 27.5 µM.

On to `C(=C/C1CCCOC1)/CCc1ccccc1` (stereo not given), for which the result was inactive.

As for `COC(=O)CCCN(C)c1n[nH]c(N)n1`, the EC50 was over 200 µM and the IC50 was over 200 µM.

Consider `CCOc1ccc(NC(=O)C(=O)Nn2c(N)nnc2N)cc1`, for which the EC50 is over 61.7 µM and the concentration for half-maximal inhibition (IC50) is over 61.7 µM.

On to `COc1ccc(C2Nc3cc(Cl)ccc3NC3=C2C(=O)CC(C)(C)C3)cc1` (stereo not given), for which the EC50 is over 200 µM and the IC50 stood at 83.2 µM.

On to `O=C1N=NC(=O)N1c1ccccc1`, for which the EC50 is over 200 µM and the IC50 was over 200 µM.

As to `COC(=O)c1cc2c(o1)Sc1ccccc1NC2=O`, the EC50 was over 200 µM and the IC50 was over 200 µM.

For `COc1ccc(N2C(=O)c3cc([N+](=O)[O-])cnc3S2(=O)=O)cc1`, the EC50 is over 200 µM and the 50% inhibitory concentration (IC50) worked out at 28.2 µM.

In the case of `CC(C)CC(NC(=O)OCc1ccccc1)C(=O)NC(Cc1ccccc1)C(=O)CCl` (stereo not drawn) (Cbz-Leu-Phe-CH2Cl; configuration not given here), the EC50 was over 20 µM and the half-maximal inhibitory concentration (IC50) is 1 µM.

With `O=C1CN(C=C(C(=O)c2ccccc2)C(=O)c2ccccc2)C(=S)N1`, the result was inactive.

As for `CCCCCCCCCCCCCCCC=C(c1cc(Cl)c(OC)c(C(=O)OC)c1)c1cc(Cl)c(OC)c(C(=O)OC)c1`, the EC50 is over 6.61 µM and the half-maximal inhibitory concentration (IC50) was over 6.61 µM.

Regarding `Cc1cc(NS(=O)(=O)c2ccc(Nc3c4ccccc4nc4c(C(=O)N5CCN(CCOS(C)(=O)=O)CC5)cccc34)cc2)no1`, the EC50 was over 44.7 µM and the half-inhibitory concentration (IC50) was over 44.7 µM.
